Test results published in PubChem BioAssay AID652211 (Johns Hopkins Ion Channel Center, 2013).
Calls of active or inactive are those of the source.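 Rule for the calls: active = lowers flux through the TASK3 potassium channel at some tested dose, with a dose response curve; inactive = no inhibition at any dose or no dose response.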

Each molecule was assayed against Potassium channel subfamily K member 9 (Homo sapiens) (UniProt Q9NPC2) (assay: KCNK9 flux blockade, concentration-response – cell-based, FluxOR thallium flux, selectivity assay for TASK1 inhibitor project, SAR follow-up (AID 652211)). Details: KCNK9-expressing cells, FluxOR thallium flux fluorescence.
Sequence of Potassium channel subfamily K member 9 (Homo sapiens) (Q9NPC2 whole entry, looked up): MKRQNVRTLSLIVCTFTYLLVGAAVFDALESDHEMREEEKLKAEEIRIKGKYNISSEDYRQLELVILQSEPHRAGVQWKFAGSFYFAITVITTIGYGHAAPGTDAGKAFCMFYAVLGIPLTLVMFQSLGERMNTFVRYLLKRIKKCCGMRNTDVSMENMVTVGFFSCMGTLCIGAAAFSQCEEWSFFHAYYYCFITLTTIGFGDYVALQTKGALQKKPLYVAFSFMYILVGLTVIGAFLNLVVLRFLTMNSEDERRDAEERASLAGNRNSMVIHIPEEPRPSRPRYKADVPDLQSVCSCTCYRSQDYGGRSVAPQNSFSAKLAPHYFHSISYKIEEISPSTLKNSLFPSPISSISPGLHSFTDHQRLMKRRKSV

Question: For `CC(C)c1ccccc1C(=O)Nc1cccc(NC(=O)c2ccccc2OC(F)(F)F)c1`, which IC50 is on record?
Answer: 730 nM

Question: How did the IC50 turn out when `Cc1cccc(C(=O)Nc2cccc(NC(=O)c3cccc(F)c3)c2)c1` was run?
Answer: 600 nM

Same assay, conditions: KCNK9-expressing cells, FluxOR thallium flux fluorescence; at 30 µM (top of the series)

Question: How did the “thallium flux ratio, lower = inhibition” value turn out when `Cc1ccc(C(=O)Nc2cccc(NC(=O)c3ccccc3)c2)cc1` was run?
Answer: inactive

Question: Which “thallium flux ratio, lower = inhibition” value does the source give for `O=C(Nc1cccc(NC(=O)c2cccc(C(F)(F)F)c2)c1)c1ccccc1` here?
Answer: inactive

Question: For `Cc1cccc(C(=O)Nc2cccc(C(=O)Nc3ccccc3)c2)c1`, which “thallium flux ratio, lower = inhibition” value is on record?
Answer: inactive

Question: How did the “thallium flux ratio, lower = inhibition” value turn out when `O=C(Nc1cccc(NC(=O)c2ccc(Cl)cc2)c1)c1ccccc1` was run?
Answer: inactive

Question: For `O=C(Nc1cccc(NC(=O)c2ccccc2)c1)c1ccccc1`, which “thallium flux ratio, lower = inhibition” value is on record?
Answer: inactive

Question: With `Cc1cccc(NC(=O)c2ccccc2NC(=O)c2ccccc2)c1` as the molecule, how does the “thallium flux ratio, lower = inhibition” value read?
Answer: inactive

Question: With `CCOc1ccccc1NC(=O)c1cccc(NC(=O)c2ccc(Cl)cc2)c1` as the molecule, how does the “thallium flux ratio, lower = inhibition” value read?
Answer: inactive

Question: For `CCOc1ccc(NC(=O)c2cccc(NC(=O)C3CCCC3)c2)cc1`, which “thallium flux ratio, lower = inhibition” value is on record?
Answer: inactive

Question: With `CCOc1ccccc1NC(=O)c1cccc(NC(=O)c2ccc(C(F)(F)F)cc2)c1` as the molecule, how does the “thallium flux ratio, lower = inhibition” value read?
Answer: inactive

Question: `O=C(Nc1cccc(NC(=O)c2cccnc2)c1)c1ccccc1` was tested. Which “thallium flux ratio, lower = inhibition” value did it give?
Answer: inactive

Question: With `O=C(Nc1cccc(NC(=O)c2ccc(C(F)(F)F)cc2)c1)c1ccccc1` as the molecule, how does the “thallium flux ratio, lower = inhibition” value read?
Answer: inactive

Question: `O=C(Nc1cccc(NC(=O)c2cccc(Cl)c2)c1)c1ccccc1` was tested. Which “thallium flux ratio, lower = inhibition” value did it give?
Answer: inactive

Question: `COc1ccc(C(=O)Nc2cccc(NC(=O)c3cccc(C)c3)c2)cc1` was tested. Which “thallium flux ratio, lower = inhibition” value did it give?
Answer: inactive

Question: How did the “thallium flux ratio, lower = inhibition” value turn out when `COc1ccc(C(=O)Nc2cccc(NC(=O)c3ccccc3)c2)cc1` was run?
Answer: inactive

Question: Which “thallium flux ratio, lower = inhibition” value does the source give for `O=C(Nc1cccc(NC(=O)c2ccoc2)c1)c1ccccc1` here?
Answer: inactive

Question: Which “thallium flux ratio, lower = inhibition” value does the source give for `CN(C)c1ccc(C(=O)Nc2cccc(NC(=O)c3ccccc3)c2)cc1` here?
Answer: inactive

Question: For `CCOc1ccccc1NC(=O)c1cccc(C(=O)NC2CCCC2)c1`, which “thallium flux ratio, lower = inhibition” value is on record?
Answer: inactive

Question: How did the “thallium flux ratio, lower = inhibition” value turn out when `CC(C)(C)c1ccc(C(=O)Nc2cccc(NC(=O)c3ccccc3)c2)cc1` was run?
Answer: inactive

Question: How did the “thallium flux ratio, lower = inhibition” value turn out when `COc1ccccc1C(=O)Nc1cc(NC(=O)c2ccccc2C(C)C)ccc1F` was run?
Answer: inactive

Question: How did the “thallium flux ratio, lower = inhibition” value turn out when `CCOc1ccccc1NC(=O)c1cccc(NC(=O)C2CCCO2)c1` (centres undefined) was run?
Answer: inactive

Question: `O=C(Nc1cccc(NC(=O)c2cccc(F)c2)c1)c1ccccc1` was tested. Which “thallium flux ratio, lower = inhibition” value did it give?
Answer: inactive

Question: For `Cc1cccc(S(=O)(=O)Nc2cccc(NC(=O)c3ccccc3)c2)c1`, which “thallium flux ratio, lower = inhibition” value is on record?
Answer: inactive

Question: With `Cc1cccc(C(=O)Nc2cccc(NC(=O)c3ccc(Cl)cc3)c2)c1` as the molecule, how does the “thallium flux ratio, lower = inhibition” value read?
Answer: inactive

Question: `Cc1cccc(NC(=O)c2cccc(NC(=O)c3ccccc3)c2)c1` was tested. Which “thallium flux ratio, lower = inhibition” value did it give?
Answer: inactive

Question: `O=C(Nc1cccc(NC(=O)c2ccc(F)cc2)c1)c1ccccc1` was tested. Which “thallium flux ratio, lower = inhibition” value did it give?
Answer: inactive

Question: With `Cc1cccc(C(=O)Nc2ccccc2NC(=O)c2ccccc2)c1` as the molecule, how does the “thallium flux ratio, lower = inhibition” value read?
Answer: inactive

Question: `CCOc1ccccc1NC(=O)c1cccc(NC(=O)c2ccc(OC)cc2)c1` was tested. Which “thallium flux ratio, lower = inhibition” value did it give?
Answer: inactive

Question: For `O=C(Nc1cccc(NC(=O)c2ccco2)c1)c1ccccc1`, which “thallium flux ratio, lower = inhibition” value is on record?
Answer: inactive

Question: How did the “thallium flux ratio, lower = inhibition” value turn out when `O=C(Nc1cccc(NC(=O)c2cccs2)c1)c1ccccc1` was run?
Answer: inactive

Question: With `O=C(Nc1cccc(NC(=O)c2ccncc2)c1)c1ccccc1` as the molecule, how does the “thallium flux ratio, lower = inhibition” value read?
Answer: inactive

Question: With `CCOc1ccccc1NC(=O)c1cccc(NC(=O)C2CCOC2)c1` (centres undefined) as the molecule, how does the “thallium flux ratio, lower = inhibition” value read?
Answer: inactive

Question: For `Cc1cccc(C(=O)Nc2cccc(NC(=O)c3ccc(C(F)(F)F)cc3)c2)c1`, which “thallium flux ratio, lower = inhibition” value is on record?
Answer: inactive

Question: With `Cc1cccc(C(=O)Nc2cccc(NC(=O)c3ccc(C(C)(C)C)cc3)c2)c1` as the molecule, how does the “thallium flux ratio, lower = inhibition” value read?
Answer: inactive

Question: Which “thallium flux ratio, lower = inhibition” value does the source give for `Cc1cccc(C(=O)Nc2ccccc2C(=O)Nc2ccccc2)c1` here?
Answer: inactive

Question: For `O=C(Nc1cccc(NC(=O)c2ccsc2)c1)c1ccccc1`, which “thallium flux ratio, lower = inhibition” value is on record?
Answer: inactive

Question: With `Cc1cccc(C(=O)Nc2cccc(NC(=O)c3ccc(N(C)C)cc3)c2)c1` as the molecule, how does the “thallium flux ratio, lower = inhibition” value read?
Answer: inactive

Question: `Cc1cccc(C(=O)Nc2cccc(NC(=O)c3ccncc3)c2)c1` was tested. Which “thallium flux ratio, lower = inhibition” value did it give?
Answer: inactive
